Key:
Aspergillus fumigatus = experiment: Antifungal activity against Aspergillus fumigatus relative to fluconazole; assay type: functional
Candida albicans = experiment: Antifungal activity against Candida albicans relative to fluconazole; assay type: functional

## CCCCCCCCCC1C=C(CCC2C(OC)OC3COC(c4ccccc4)OC3C2CCC2CN(CCCCCCCCC)N=N2)N=N1 (configuration not stated)
Aspergillus fumigatus
  fold change (FC): 14
Candida albicans
  fold change (FC): 14

From ChEMBL document CHEMBL2169787, “The biology and chemistry of antifungal agents: a review” (2012)
